Experimental data taken from patent US20220031657A1 (NOVARTIS AG, priority 2017, published 2022).
Marks after values point to notes of the source that are not given here.

How the values were obtained:
ERα = target: T1, ERα (Homo sapiens, UniProt P03372); test: Immunoblot ERα protein quantification, MCF-7 parental cells; conditions: 24 hr
T1 sequence (P03372 1-595): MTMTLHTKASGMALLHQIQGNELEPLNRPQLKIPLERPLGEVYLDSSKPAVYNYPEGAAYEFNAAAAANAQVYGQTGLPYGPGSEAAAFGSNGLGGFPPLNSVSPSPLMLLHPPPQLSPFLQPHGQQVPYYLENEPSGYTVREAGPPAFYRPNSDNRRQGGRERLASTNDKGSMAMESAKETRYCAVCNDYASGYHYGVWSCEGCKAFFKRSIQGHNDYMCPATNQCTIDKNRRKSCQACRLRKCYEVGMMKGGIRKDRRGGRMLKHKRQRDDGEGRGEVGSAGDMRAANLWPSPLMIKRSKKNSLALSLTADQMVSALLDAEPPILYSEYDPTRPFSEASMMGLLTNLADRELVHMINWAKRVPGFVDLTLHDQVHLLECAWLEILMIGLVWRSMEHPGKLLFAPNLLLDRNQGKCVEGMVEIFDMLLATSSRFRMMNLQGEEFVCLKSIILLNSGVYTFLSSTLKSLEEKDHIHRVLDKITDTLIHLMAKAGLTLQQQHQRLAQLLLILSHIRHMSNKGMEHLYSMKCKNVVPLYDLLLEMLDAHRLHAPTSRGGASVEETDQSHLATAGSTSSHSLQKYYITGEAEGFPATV

MCF-7 xenograft [1] = test: Dose fractionation study in mice with MCF-7 xenografts; assay type: in vivo; conditions: 5 mg/mouse SC QWeek, Day 61
HBRX1298 xenograft = test: ER+ primary breast cancer model HBRX1298 in NSG mice; assay type: in vivo; conditions: 5 mg/mouse SC QWeek, Day 63
MCF-7 cell line = test: Insulin driven proliferation assay; assay type: cell-based, human
MCF-7 xenograft [2] = test: Orthotopic MCF-7 xenograft model in NSG mice; assay type: in vivo; conditions: for anti-tumor effect in words: LSZ102 20 mg/kg QD, tamoxifen 60 mg/kg, fulvestrant 5 mg/mouse

| ER protein levels (ERα) | Compound | ΔT/ΔC (%) (MCF-7 xenograft [1]) | ΔT/ΔC (%) (HBRX1298 xenograft) | effect in insulin driven proliferation assay (MCF-7 cell line) | ΔT/ΔC (%) (MCF-7 xenograft [2]; 5 mg/mouse SC QWeek, Day 48) | anti-tumor effect in words (MCF-7 xenograft [2]) |
| --- | --- | --- | --- | --- | --- | --- |
| significantly reduce ER protein levels | C[C@]12CC[C@@H]3c4ccc(O)cc4C[C@@H](CCCCCCCCC[S+]([O-])CCCC(F)(F)C(F)(F)F)[C@H]3[C@@H]1CC[C@@H]2O (some centres unmarked) [Fulvestrant] | 18* % | 48* % | inhibited | 24* % | suppression of growth |
|  | CC/C(=C(\c1ccccc1)c1ccc(OCCN(C)C)cc1)c1ccccc1 [Tamoxifen] |  |  | unaffected |  | tumor stasis |
